Reference: PubChem BioAssay (NCI)
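A five-concentration, 48-hour dose response in 96-well plates underlies each endpoint, interpolated linearly between surrounding concentrations. Definition used: TGI = concentration required for complete inhibition of growth.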

Key:
Test in all cases: inhibition of tumour cell growth, NCI panel, 48 h
[1] = tested on: BT-549 breast
[2] = tested on: MALME-3M melanoma
[3] = tested on: HOP-62 NSCLC
[4] = tested on: UACC-257 melanoma
[5] = tested on: OVCAR-5 ovarian
[6] = tested on: MOLT-4 leukemia
[7] = tested on: MDA-MB-231 breast
[8] = tested on: A498 renal
[9] = tested on: MCF7 breast
[10] = tested on: M14 melanoma
[11] = tested on: CCRF-CEM leukemia
[12] = tested on: NCI-H23 lung
[13] = tested on: HOP-92 NSCLC
[14] = tested on: UACC-62 melanoma
[15] = tested on: SW-620 colon
[16] = tested on: 786-0 renal
[17] = tested on: SN12C renal
[18] = tested on: HCC-2998 colon
[19] = tested on: PC-3 prostate
[20] = tested on: HT29 colon
[21] = tested on: UO-31 renal
[22] = tested on: SF-539 CNS
[23] = tested on: SK-MEL-5 melanoma
[24] = tested on: RXF 393 renal
[25] = tested on: SF-295 CNS
[26] = tested on: NCI-H460 lung
[27] = tested on: A549 NSCLC
[28] = tested on: LOX IMVI melanoma
[29] = tested on: MDA-N
[30] = tested on: OVCAR-4 ovarian
[31] = tested on: OVCAR-3 ovarian
[32] = tested on: CAKI-1 renal
[33] = tested on: COLO 205 colon
[34] = tested on: DU-145 prostate
[35] = tested on: IGROV1 ovarian
[36] = tested on: HL-60(TB) leukemia
[37] = tested on: ACHN renal
[38] = tested on: SR leukemia
[39] = tested on: K-562 leukemia
[40] = tested on: NCI-H226 lung
[41] = tested on: RPMI-8226 leukemia
[42] = tested on: EKVX NSCLC
[43] = tested on: HCT-116 colon
[44] = tested on: SK-MEL-2 melanoma
[45] = tested on: NCI-H522 lung
[46] = tested on: SK-MEL-28 melanoma
[47] = tested on: KM12 colon
[48] = tested on: SNB-75 CNS
[49] = tested on: SNB-19 CNS
[50] = tested on: NCI/ADR-RES ovarian
[51] = tested on: OVCAR-8 ovarian
[52] = tested on: U251 CNS
[53] = tested on: MDA-MB-435
[54] = tested on: HS 578T breast
[55] = tested on: TK-10 renal
[56] = tested on: SK-OV-3 ovarian
[57] = tested on: HCT-15 colon
[58] = tested on: T-47D breast
[59] = tested on: SF-268 CNS

With `COc1nc2c(c(=O)[nH]1)N=C(c1ccc([N+](=O)[O-])cc1)CC(c1ccccc1)N2` (centres undefined) the TGI [1] was > 100 µM, the TGI [2] was > 100 µM and the TGI [3] was > 100 µM. For the same compound, the TGI [4] was > 100 µM, the TGI [5] was > 100 µM and the TGI [6] was > 100 µM. The TGI [7] was > 100 µM, the TGI [8] was > 100 µM and the TGI [9] was > 100 µM. For the same compound, the TGI [10] was > 100 µM, the TGI [11] was > 100 µM and the TGI [12] was > 100 µM. For the same compound, the TGI [13] was > 100 µM, the TGI [14] was > 100 µM and the TGI [15] was > 100 µM. For the same compound, the TGI [16] was > 100 µM, the TGI [17] was > 100 µM and the TGI [18] was > 100 µM. The TGI [19] was > 100 µM, the TGI [20] was > 100 µM and the TGI [21] was > 100 µM. The TGI [22] was > 100 µM, the TGI [23] was > 100 µM and the TGI [24] was > 100 µM. For the same compound, the TGI [25] was > 100 µM, the TGI [26] was > 100 µM and the TGI [27] was > 100 µM. The TGI [28] was > 100 µM, the TGI [29] was > 100 µM and the TGI [30] was > 100 µM. For the same compound, the TGI [31] was > 100 µM, the TGI [32] was > 100 µM and the TGI [33] was > 100 µM. The TGI [34] was > 100 µM, the TGI [35] was > 100 µM and the TGI [36] was 46.6 µM. For the same compound, the TGI [37] was > 100 µM, the TGI [38] was > 100 µM and the TGI [39] was > 100 µM. The TGI [40] was > 100 µM, the TGI [41] was > 100 µM and the TGI [42] was > 100 µM. For the same compound, the TGI [43] was > 100 µM, the TGI [44] was > 100 µM and the TGI [45] was > 100 µM. The TGI [46] was > 100 µM, the TGI [47] was > 100 µM and the TGI [48] was > 100 µM. For the same compound, the TGI [49] was > 100 µM, the TGI [50] was > 100 µM and the TGI [51] was > 100 µM. The TGI [52] was > 100 µM and the TGI [53] was > 100 µM.
For `O=C(N=Nc1c(O)[nH]c2c(Cl)cc(Cl)cc12)C(=O)Nc1cccc(C(F)(F)F)c1`, the TGI [1] was > 100 µM, the TGI [2] was > 100 µM and the TGI [3] was > 100 µM. The TGI [4] was > 100 µM, the TGI [5] was > 100 µM and the TGI [6] was > 100 µM. For the same compound, the TGI [7] was > 100 µM, the TGI [8] was > 100 µM and the TGI [9] was > 100 µM. The TGI [10] was > 100 µM, the TGI [11] was > 100 µM and the TGI [12] was > 100 µM. For the same compound, the TGI [13] was > 100 µM, the TGI [14] was > 100 µM and the TGI [15] was > 100 µM. For the same compound, the TGI [16] was > 100 µM, the TGI [17] was > 100 µM and the TGI [18] was > 100 µM. For the same compound, the TGI [19] was > 100 µM, the TGI [20] was > 100 µM and the TGI [21] was > 100 µM. The TGI [22] was > 100 µM, the TGI [23] was > 100 µM and the TGI [24] was > 100 µM. For the same compound, the TGI [25] was > 100 µM, the TGI [26] was > 100 µM and the TGI [27] was > 100 µM. The TGI [28] was > 100 µM, the TGI [54] was > 100 µM and the TGI [55] was > 100 µM. For the same compound, the TGI [29] was > 100 µM, the TGI [30] was > 100 µM and the TGI [31] was > 100 µM. For the same compound, the TGI [32] was > 100 µM, the TGI [33] was > 100 µM and the TGI [35] was > 100 µM. The TGI [36] was > 100 µM, the TGI [37] was > 100 µM and the TGI [38] was > 100 µM. The TGI [40] was > 100 µM, the TGI [56] was > 100 µM and the TGI [42] was > 100 µM. The TGI [43] was > 100 µM, the TGI [44] was > 100 µM and the TGI [46] was > 100 µM. The TGI [47] was > 100 µM, the TGI [48] was > 100 µM and the TGI [57] was > 100 µM. For the same compound, the TGI [49] was > 100 µM, the TGI [50] was > 100 µM and the TGI [51] was > 100 µM. For the same compound, the TGI [52] was > 100 µM and the TGI [53] was > 100 µM.
With `CCO/C=N\C1=C(C#N)SC2=N/C(=C\c3ccco3)C(=O)N21` the TGI [2] was > 100 µM, the TGI [3] was > 100 µM and the TGI [4] was > 100 µM. For the same compound, the TGI [5] was > 100 µM, the TGI [6] was > 100 µM and the TGI [7] was > 100 µM. For the same compound, the TGI [8] was > 100 µM, the TGI [9] was > 100 µM and the TGI [10] was > 100 µM. The TGI [11] was > 100 µM, the TGI [12] was > 100 µM and the TGI [13] was > 100 µM. For the same compound, the TGI [15] was > 100 µM, the TGI [16] was > 100 µM and the TGI [17] was > 100 µM. The TGI [18] was > 100 µM, the TGI [19] was > 100 µM and the TGI [20] was > 100 µM. For the same compound, the TGI [58] was > 100 µM, the TGI [21] was > 100 µM and the TGI [22] was > 100 µM. The TGI [23] was > 100 µM, the TGI [24] was > 100 µM and the TGI [25] was > 100 µM. The TGI [27] was > 100 µM, the TGI [28] was > 100 µM and the TGI [54] was > 100 µM. The TGI [55] was > 100 µM, the TGI [29] was > 100 µM and the TGI [30] was > 100 µM. For the same compound, the TGI [31] was > 100 µM, the TGI [32] was > 100 µM and the TGI [33] was > 100 µM. The TGI [34] was > 100 µM, the TGI [35] was > 100 µM and the TGI [36] was > 100 µM. The TGI [37] was > 100 µM, the TGI [38] was > 100 µM and the TGI [39] was > 100 µM. For the same compound, the TGI [40] was > 100 µM, the TGI [56] was > 100 µM and the TGI [59] was > 100 µM. For the same compound, the TGI [41] was > 100 µM, the TGI [42] was > 100 µM and the TGI [43] was > 100 µM. The TGI [44] was > 100 µM, the TGI [45] was > 100 µM and the TGI [46] was > 100 µM. The TGI [47] was > 100 µM, the TGI [48] was > 100 µM and the TGI [57] was > 100 µM. The TGI [49] was > 100 µM, the TGI [50] was > 100 µM and the TGI [51] was > 100 µM. The TGI [52] was > 100 µM and the TGI [53] was > 100 µM.
For `COc1ccc(N(c2ccc(C#N)cc2)c2ccc(C#N)cc2)cc1`, the TGI [1] was > 100 µM, the TGI [3] was > 100 µM and the TGI [4] was > 100 µM. The TGI [5] was > 100 µM, the TGI [6] was > 100 µM and the TGI [7] was > 100 µM. The TGI [8] was > 100 µM, the TGI [9] was > 100 µM and the TGI [10] was > 100 µM. The TGI [11] was > 100 µM, the TGI [12] was > 100 µM and the TGI [13] was > 100 µM. The TGI [14] was > 100 µM, the TGI [15] was > 100 µM and the TGI [16] was > 100 µM. The TGI [17] was > 100 µM, the TGI [19] was > 100 µM and the TGI [20] was > 100 µM. For the same compound, the TGI [58] was 77.6 µM, the TGI [21] was > 100 µM and the TGI [22] was > 100 µM. For the same compound, the TGI [23] was > 100 µM, the TGI [25] was > 100 µM and the TGI [26] was > 100 µM. For the same compound, the TGI [27] was > 100 µM, the TGI [28] was > 100 µM and the TGI [54] was > 100 µM. The TGI [55] was > 100 µM, the TGI [29] was > 100 µM and the TGI [30] was > 100 µM. For the same compound, the TGI [31] was > 100 µM, the TGI [32] was > 100 µM and the TGI [33] was > 100 µM. For the same compound, the TGI [34] was > 100 µM, the TGI [35] was > 100 µM and the TGI [36] was > 100 µM. For the same compound, the TGI [37] was > 100 µM, the TGI [40] was > 100 µM and the TGI [56] was > 100 µM. For the same compound, the TGI [59] was > 100 µM, the TGI [42] was > 100 µM and the TGI [43] was > 100 µM. The TGI [44] was > 100 µM, the TGI [45] was 82.9 µM and the TGI [46] was > 100 µM. The TGI [47] was > 100 µM, the TGI [48] was > 100 µM and the TGI [57] was > 100 µM. The TGI [49] was > 100 µM, the TGI [51] was > 100 µM and the TGI [52] was > 100 µM. For the same compound, the TGI [53] was > 100 µM.
